Measured values reported in a melting point compilation (Tetko et al.; mined from patent text by program, amines drawn as free bases though some values may be those of a salt).

First: O=C(Nc1ccccc1)N1CCc2cc(S(=O)(=O)N3CC(c4ccccc4)NC3=O)ccc21 (configuration not stated)
Second: CS(=O)(=O)C(=C1CN(C(c2ccccc2)c2ccccc2)C1)c1cccc([N+](=O)[O-])c1
The melting point of the first is higher: 247 to 248 °C for the first, 184 °C for the second.

First: CSc1cn(C)c2cc(C)sc2c1=O
Second: CC(C)n1c(=O)c(=O)[nH]c2cccnc21
The melting point of the first is lower: 139 to 142 °C for the first, 246 to 247 °C for the second.

First: Cn1cc(-c2cccc(N3CCc4c(cc5n4CCCC5)C3=O)c2CO)nc(Nc2ccc3c(c2)CNCC3)c1=O
Second: O=C1C(=O)c2ccccc2C2=C1SCC1(CCN(C(=O)c3cn4c5c(cccc35)CCC4)CC1)O2
The melting point of the first is lower: 218 to 220 °C for the first, 265 to 267 °C for the second.

First: CCCCCCCNc1nc(C)c(O)c(=O)[nH]1
Second: CCCCC(CC)C(=O)NCCCCn1cnc2c(N)nc3ccccc3c21 (configuration not stated)
The melting point of the first is higher: 233 to 235 °C for the first, 163 to 164 °C for the second.

First: CN(c1cccc2cc(C3=NCC(CCO)S3)[nH]c12)S(=O)(=O)c1ccccc1C(F)(F)F (configuration not stated)
Second: CS(=O)(=O)c1ccc(Oc2cc(OCc3ccccc3)c3[nH]c(C4=NCC(CC(N)=O)S4)cc3c2)cc1 (configuration not stated)
The melting point of the first is higher: 153 to 154 °C for the first, 134 to 135 °C for the second.

Compared with `CCS(=O)(=O)Nc1nc(CN2CCN(C(c3ccccc3)c3ccccc3)CC2)cs1`, `CNC(=O)C1=C(c2ccccc2)OC(c2ccccc2)CC1=O` (configuration not stated) is higher in melting point: 159 to 160 °C for the first, 212 to 214 °C for the second.

First: O=C(c1ccc2nonc2c1)N1CC2CC1C(Cl)C2Cl (configuration not stated)
Second: C[C@H]1C(=O)C[C@@H]2C[C@H]1OO[C@]2(C)/C=C\c1ccc(Cl)c(Cl)c1
The melting point of the first is higher: 156 to 157 °C for the first, 135 °C for the second.

First: COc1cc(N(C(C)=O)C2CCCCC2)c2ccccc2c1OC(C)=O
Second: COC(=O)CN(c1ccccc1C)S(=O)(=O)c1ccccc1C(=O)c1cc(OC)c2c(c1)OCO2
The melting point of the first is lower: 137 to 139 °C for the first, 159 to 170 °C for the second.

First: CSc1nc(-c2ccc(F)cc2)c(-c2ccnc(Nc3ccccc3)c2)[nH]1
Second: CC(c1ccccc1)c1ccc(-c2cnn3c(O)ncnc23)cc1 (configuration not stated)
The melting point of the first is lower: 228 °C for the first, 291 to 293 °C for the second.

First: NOCCc1cn(C(c2ccccc2)(c2ccccc2)c2ccccc2)cn1
Second: CC1(C)CC(Cc2ccc(CC3CC(C)(C)N(Cc4ccccc4)C(C)(C)C3)cc2)CC(C)(C)N1Cc1ccccc1
The melting point of the first is lower: 93 °C for the first, 207 to 208 °C for the second.

First: Cc1nnc2n1-c1ccc(Br)cc1C(c1ccccc1F)=NC2
Second: Cc1cccc(-c2nc3cccnn3c2-c2ccnc(NC3CCCC3)c2)c1
The melting point of the first is higher: 213 to 214 °C for the first, 130 to 131 °C for the second.

First: CCN(C(C)=O)c1ccc(OC23CCC(CC2)CC3)cc1
Second: CCOc1cc(C(C)=O)ccc1OCCCN1CCC(c2noc3cc(F)ccc23)CC1
The melting point of the first is lower: 99 to 101 °C for the first, 112 to 114 °C for the second.

First: Cc1cncc(COc2cccc(C(N)=O)c2)c1
Second: CCOC(=O)c1cccc(-n2cccc2)c1
The melting point of the first is higher: 152 to 154 °C for the first, 62 to 64 °C for the second.

First: OCCc1c(Br)cc(Br)c2cccnc12
Second: CCc1ccc(Cc2cc(Br)cc(Br)c2O)cc1
The melting point of the first is higher: 128 to 131 °C for the first, 90 to 91.5 °C for the second.

First: COc1ccccc1N(CCN1CCC(C(=O)c2ccc(F)cc2)CC1)C(=O)c1ccc(CO)cc1
Second: Cc1ccccc1C(=O)Nc1ccc(C(=O)N2CCCC(O)(CO)c3ccccc32)cc1 (configuration not stated)
The melting point of the first is lower: 87 to 91 °C for the first, 136 to 140 °C for the second.

First: O=[N+]([O-])c1ccc(OCCn2ccnc2)cc1
Second: O=C(O)C(=O)c1ccc(OCCOc2ccc3ccccc3c2)cc1F
The melting point of the first is lower: 55 to 57 °C for the first, 155 to 156 °C for the second.

First: CCC(=O)c1cc[nH]c(=O)c1
Second: CCOC=CC(=O)Nc1cccc(C(=O)O)c1
The melting point of the first is lower: 168 °C for the first, 200 to 202 °C for the second.

Compared with `COc1ccn(O)c(=O)c1`, `COc1ccc2c(=O)c3ccccc3oc2c1` is lower in melting point: 174 to 175 °C for the first, 127 to 129 °C for the second.

First: CC[C@H](C)N1CC(C)(C)[C@@H](Oc2ccc(C#N)c(C(F)(F)F)c2)C1=O
Second: N#CCCn1cc(-c2cccc(Cl)c2Cl)c(C(F)(F)F)c1
The melting point of the first is higher: 101 to 102 °C for the first, 83 to 85 °C for the second.

Compared with `Oc1ccc(C2=CCCCCCC2)cc1`, `O=C(O)C1=Cc2ccc(O)cc2CC1` is higher in melting point: 95 to 97 °C for the first, 195 to 197 °C for the second.

First: CN1Cc2c(C=NO)ncn2-c2ccc(F)cc2C1=O
Second: Cc1cc(-c2[nH]nc3c2C(=O)c2c(NC(N)=O)cccc2-3)c(C)s1
The melting point of the first is lower: 247 to 250 °C for the first, greater than 280 °C for the second.

First: CCOC(C)=NS(=O)(=O)c1nc(-c2ccccc2Cl)ns1
Second: COC(=O)c1ccccc1S(=O)(=O)NC(=O)Nc1ncc(Cl)cn1
The melting point of the first is lower: 70 to 72 °C for the first, 217 to 221 °C for the second.

Compared with `CN(C)CC=CC(=O)Nc1ccc2ncc(C#N)c(Nc3cccc(Br)c3)c2c1`, `CCOC(=O)c1cc(Nc2cccc(Cl)c2)c(C(=O)OCC)cc1Nc1cccc(Cl)c1` is lower in melting point: 209 to 211 °C for the first, 145 to 146 °C for the second.

Compared with `CN(C)c1ccc(-c2cc3ccccc3o2)cc1`, `CCOCc1cc2cc(Cl)ccc2oc1=Nc1ccc(Br)cc1` is lower in melting point: 178 to 181 °C for the first, 119 to 121 °C for the second.

Compared with `Cn1cccc1CC(=O)O`, `N[C@@H](CO)C(=O)NCc1ccccc1` is lower in melting point: 97 to 100 °C for the first, 76 to 80 °C for the second.

Compared with `CCCCCCOc1ccccc1C(=O)CCCCC(=O)O`, `COc1ccc(Cl)cc1C(=O)NCCc1ccc(CCCCCCC(=O)O)cc1` is lower in melting point: 64 to 65 °C for the first, 36 °C for the second.

First: CS(=O)(=O)Cc1ccc(C(=NNC(N)=O)c2ccc(Cl)cc2)cc1
Second: CCOC(=O)Cc1ccnc2c(NC(=O)c3c(Cl)cccc3Cl)cccc12
The melting point of the first is higher: 189 to 191 °C for the first, 150 to 152 °C for the second.

First: CCOP(=O)(CCOCn1cnc2c(OC)ncnc21)OCC
Second: CCN(CC)CCN1NC(N)=c2cc3c(nc21)=CC(O)(OC)C=C3 (configuration not stated)
The melting point of the first is lower: 140 to 141 °C for the first, 232 to 235 °C for the second.

Compared with `CCCOc1cc(NC(=O)C[C@H]2O[C@H](c3cccc(OC)c3OC)c3cc(Cl)ccc3N(CC(C)(C)CO)C2=O)cc2cc(C(=O)O)oc12`, `Cc1c(NC(=O)CC(C)(C)C)cc2c(c1C)OC(C)(C)C2(O)c1ccc2ccccc2c1` (configuration not stated) is lower in melting point: 175 to 177 °C for the first, 142 to 144 °C for the second.

First: COc1nc(OC)c(C(C)C)c(C(=O)c2cc(C)cc(C(OC)OC)c2)n1
Second: COC(=O)c1cc(OCc2ccccc2)nn1C(C)C
The melting point of the first is higher: 86 to 88 °C for the first, 73 to 74 °C for the second.

First: Nc1n[nH]cc1C(=O)NC/C=C\COc1cc(CN2CCCCC2)ccn1
Second: Nc1nc2ccccc2n1CCCN1CCCCC1
The melting point of the first is lower: 172 to 174 °C for the first, 179 to 181 °C for the second.

First: CCC1(CC)c2cc(-c3nc4ccccc4s3)ccc2-c2ccc(N(c3ccc(Oc4ccc([N+](=O)[O-])cc4)cc3)c3ccc(Oc4ccc([N+](=O)[O-])cc4)cc3)cc21
Second: O=C(O)COc1ccc(CCc2ccc(-c3ccc(C(F)(F)F)cc3)cc2)c2c1CCC2
The melting point of the first is higher: 223 to 225 °C for the first, 188 to 190 °C for the second.

First: CN[C@@H]1CCN(c2ccc3c(NC(=O)CC4CCCCC4)c(Cl)ccc3n2)C1
Second: CC(=O)NC1CCN(c2cccc(Sc3ccccc3)n2)CC1
The melting point of the first is higher: 169 °C for the first, 110 to 112 °C for the second.

First: CCCCNS(=O)(=O)CC(O)C(O)C(CC1CCCCC1)NC(=O)c1ccccc1 (configuration not stated)
Second: N#CNC(=NCCN)NC1CCCC(c2csc(NC(=N)N)n2)C1 (configuration not stated)
The melting point of the first is lower: 153 to 155 °C for the first, 203 to 205 °C for the second.

Compared with `CSC1C(=O)Nc2cccc([N+](=O)[O-])c21` (configuration not stated), `NC(=O)c1cccc2c1OC(F)(F)O2` is lower in melting point: 228 to 230 °C for the first, 130 to 131 °C for the second.

First: CN(C)C(=S)Oc1ccc(Br)cc1C=O
Second: CC(C)c1nc2c([nH]1)c(=O)[nH]c(=O)n2Cc1ccncc1
The melting point of the first is lower: 141 to 143 °C for the first, 305 to 307 °C for the second.
